Reference: publication PMC7504360 (International Journal of Molecular Sciences, 2020)
Square brackets hold non-standard residues; d marks the D form. Peptide text beside a SMILES is read from it.

Legend:
[1] = test system: TLR4; experiment: Immunoblot of TLR4 expression; type: cell-based, mouse; conditions: 20 μM peptide, LPS 50 ng/mL, RAW264.7 cells
Protocol: The protein content of all experimental groups of RAW264.7 cells in triplicate were extracted using radio immunoprecipitation buffer (RIPA) containing protease phosphatase inhibitor. The supernatant was collected by centrifugation (12,000× g) at 4 °C for 20 min and stored at −80 °C until further use. Similarly, cytoplasmic and nuclear fractionation was extracted using an NE-PER Nuclear and Cytoplasmic Extraction Reagents kit (ThermoFisher Scientific, MA, USA), according to the manufacturer’s protocol. Protein contents were quantified using a bicinchoninic acid (BCA) protein assay kit (Thermo Fisher Scientific Inc., MA, USA) and 30 μg (v/v) was electrophoresed by SDS-PAGE using a 10% (w/v) polyacrylamide resolving gel, electro-transferred to a PVDF membrane, and then blocked using 5% (w/v) non-fat milk. The membranes were incubated with primary antibodies (1:1000 dilution) at 4 °C overnight, followed by incubation with their respective secondary antibody for 1 h at room temperature. The antigen-antibody complexes were examined using the WestGlow^TM Chemiluminescent Substrate (Biomax Co., Ltd, Seoul, South Korea) under iBright™ CL1000 Imaging System (Thermo Fisher Scientific Inc., MA, USA). The densitometric analysis of protein signals were quantified using the Image J software (Version 1.52, National Institutes of Health, MD, USA).

[2] = test system: all bacterial strains; experiment: Mean MIC over all bacterial strains (GM); type: cell-based; conditions: mean MIC of all bacterial strains of Table 2
Protocol: Briefly, the microplates were inoculated with two-fold serial dilutions of each peptides in Mueller–Hinton (MH) media and then seeded with log-phase culture of aforementioned bacterial suspensions (2 × 10^5 CFU/mL). The microplates were incubated for 16 h at 37 °C, and absorbance was read at 600 nm using microplate reader SpectraMAX (Molecular Devices, San Jose, CA, USA).

[3] = test system: ICR mice; experiment: Cytotoxicity in vivo (serum AST, ALT, BUN); parameters: species or system mouse; conditions: single intraperitoneal dose 1 mg/kg and 5 mg/kg, 24 h, 5 mice/group
Protocol: A preliminary toxicity study was conducted to determine the cytotoxic effect of Pro10-1 and Pro10-1D on ICR mice. Four-week-old mice (n = 5) were injected intraperitoneally with peptides (1 mg/Kg and 5 mg/Kg, respectively) for 24 h. After treatment, blood was withdrawn and serum was collected and then subjected to AST, ALT, and BUN analyses.

[4] = Calcein leakage assay; conditions: 4 µM peptide, 3 min after peptide exposure, EYPE/EYPG (7:3, w/w) LUVs, pH 7.4, fluorescence ex 490/em 520 nm; triplicate
Protocol: We investigated the modes of action of the peptides by measuring their abilities to permeate model phospholipid membranes and Escherichia coli. The membrane-permeabilizing ability of the peptides was measured by monitoring the release of fluorescent calcein from liposomes of various compositions. We employed negatively-charged large unilamellar vesicles (LUVs) composed of 7:3 (w/w) egg yolk L-α-phosphatidylethanolamine (EYPE)/egg yolk L-α-phosphatidylglycerol (EYPG) to mimic gram-negative bacterial cells. The percentage of calcein leakage 3 min after peptide exposure was used to assess its ability to permeate the membrane. […] All Pro-peptides induced significant dye release against the negatively charged EYPE/EYPG LUVs, implying that they potently permeate bacterial cell component membranes. […]
Calcein-entrapped LUVs composed of egg yolk phosphatidylethanolamine (EYPE)/egg yolk phosphatidylglycerol EYPG (7:3, w/w) were prepared by vortexing the dried lipid in dye buffer solution (70 mM calcein, 10 mM Tris, 150 mM NaCl, and 0.1 mM Ethylenediaminetetraacetic acid (EDTA), pH 7.4) as described previously. The leakage of calcein from the LUVs was monitored by measuring fluorescence intensity at an excitation wavelength of 490 nm and an emission wavelength of 520 nm on a model RF-5301PC spectrophotometer (Shimadzu, Kyoto, Japan). […]

[5] = test system: E. coli K1-infected mice; experiment: E. coli K1 septic shock mouse model; type: in vivo
Protocol: For sepsis model, we used E. coli K1 as an infection strain [47], and mice were randomly sorted in to 6 groups (5 mice/group). Control mice received I.P. injection of phosphate buffered saline (PBS, pH = 7.4) whereas Pro10-1 and Pro10-1D were injected with 1 mg/Kg and served as a peptide control. Mice infected with E. coli K1 (6 × 10^6 CFU/mouse, I.P.) served as a sepsis control. For treatment measures, mice were pretreated with 1 mg/kg of the respective peptides for 1 h and then infected with E. coli K1 like the septic mice. After 16 h, mice were euthanized by cervical dislocation under overdose of ether anesthesia. The blood samples, lung, liver, and kidney tissues were excised and processed for biochemical and histological analysis. Briefly, organ lysates of lung, liver, and kidney harvested from ice-cold PBS were evaluated for number of bacterial colonies. Endotoxin levels in the serum contents were quantified according to the kit protocol using Pierce LAL Chromogenic Endotoxin Quantitation Kit (Thermo Fisher Scientific, MA, USA). The levels of AST, ALT, and BUN in serum and the inflammatory cytokine levels in the serum or lung lysates were quantified as described previously.
Lung tissues of the control and an experimental group of mice fixed by paraformaldehyde (4% v/v) were evaluated for histological changes. Briefly, […] lung tissue sections were deparaffinized in xylene, rehydrated with graded ethanol, and then stained with H&E stain. The stained section was examined for neutrophil infiltration and other morbid changes with a light microscope (Eclipse Ni; Nikon, Tokyo, Japan).

[6] = 1 mg/kg I.P. 1 h before E. coli K1 6 × 10^6 CFU/mouse I.P., 16 h, 5 mice/group
[7] = 1 mg/kg I.P. pretreatment, septic mice, ELISA
[8] = 1 mg/kg I.P. pretreatment, E. coli K1-infected mice = 100%

For `CC[C@@H](C)[C@@H](NC(=O)[C@@H](C)NC(=O)[C@@H](CC(C)C)NC(=O)[C@@H](Cc1c[nH]c2ccccc12)NC(=O)[C@@H](CC(C)C)NC(=O)[C@@H](CCCNC(=N)N)NC(=O)[C@H](N)CCCNC(=N)N)C(=O)N[C@H](Cc1c[nH]c2ccccc12)C(=O)N[C@H](CCCNC(=N)N)C(=O)N[C@H](CCCNC(=N)N)C(N)=O` [Pro10-1D] (H-[dR][dR][dL][dW][dL][dA][dI][dW][dR][dR]-NH2; N-terminus assumed), the “LPS-induced TLR4 expression” value [1] was “effectively suppressed”, the “GM (geometric mean of MIC values of all bacterial strains)” value [2] was 4.86 µM and the “AST, ALT, and BUN elevation in serum” value [3] was “did not observe any clinical significance”. For the same compound, the calcein leakage [4] was “more than 80%”, the “reduction of the number of bacteria in kidney” value [5, 6] was about 71% and the “reduction of the number of bacteria in liver” value [5, 6] was about 87%. For the same compound, the “reduction of the number of bacteria in lung” value [5, 6] was “approximately 73%”, the “lung pathological changes (PMN infiltration), H&E histology” value ([5]; 1 mg/kg I.P. pretreatment, E. coli K1-infected mice) was “effectively alleviated the pathological changes” and the “suppression of IL-6 level in lung tissue” value [5, 7] was 62%. For the same compound, the “suppression of IL-6 level in serum” value [5, 7] was 56%, the “suppression of TNF-α level in lung tissue” value [5, 7] was 51% and the “suppression of TNF-α level in serum” value [5, 7] was 45%. The “reduction of serum endotoxin levels (LAL test)” value [5, 8] was “over 33%”, the “serum ALT level reduced to” value [5, 8] was 48% and the “serum AST level reduced to” value [5, 8] was 26%. The “serum BUN level reduced to” value [5, 8] was 37%.
